Values after ≈ are worked out from the molar mass of the structure shown.
How the values were obtained:
Experiment in all cases: In vitro antibacterial evaluation: minimum inhibitory concentration (MIC), broth dilution method
Type in all cases: cell-based
[1] = system: Streptococcus sp.; details: broth dilution, 5×10^5 CFU/mL, 18 hours at 35° C.
Method: (§1) The minimum inhibitory concentration (MIC), the lowest concentration of the antibiotic which inhibits growth of the test organism, is determined by the broth dilution method using Muller-Hinton II […] (Baltimore Biological Laboratories) following the recommendations of the National Committee for Clinical Laboratory Standards [Methods for dilution antimicrobial susceptibility tests for bacteria that grow aerobically, approved standard M7-A2, National Committee for Clinical Laboratory Standards, Villanova, Pa].
(§2) An inoculum level of 5×10^5 CFU/mL, and a range of antibiotic concentrations (64-0.06 μg/mL) is used. […] The test organisms include a spectrum of Gram-positive bacteria comprised of Staphylococcus sp., Streptococcus sp. and Enterococcus sp. These organisms include recent clinical isolates that are resistant to methicillin, penicillin and/or vancomycin.

[2] = system: Staphylococcus sp.; details: for MIC Staphylococcus aureus (GC 3051): strain GC 3051; for MIC Staphylococcus aureus (GC 3053): strain GC 3053; for MIC Staphylococcus aureus (GC 4542): strain GC 4542; for MIC Staphylococcus aureus (GC 4544): strain GC 4544; for MIC Staphylococcus aureus (GC 4545): strain GC 4545; for MIC Staphylococcus haemolyticus (GC 4546): strain GC 4546; for MIC Coagulase Negative Staphylococcus (GC 4547): strain GC 4547; for MIC Coagulase Negative Staphylococcus (GC 4551): strain GC 4551; for MIC Coagulase Negative Staphylococcus (GC 6257): strain GC 6257; for MIC Staphylococcus aureus-SMITH (GC 4543): strain GC 4543; for MIC Coagulase Negative Staphylococcus (GC 4548): strain GC 4548; for MIC Coagulase Negative Staphylococcus (GC 4549): strain GC 4549
Method: as §1, §2

[3] = system: Escherichia coli; details: 5×10^5 CFU/mL, 18 hours at 35° C.
Method: as §1, §2

[4] = system: Enterococcus sp.; details: broth dilution, 5×10^5 CFU/mL, 18 hours at 35° C.
Method: as §1, §2

[5] = broth dilution, 18 hours at 35° C.

CC(c1ccccc1)C1NC(=O)CNC(=O)C(CO)NC(=O)C(C(O)C2CNC(=N)N2C2OC(CO)C(O)C(O)C2O)NC(=O)C(C(O)C2CNC(=N)N2)NC(=O)C(Cc2ccc(OC3OC(CO)C(OC4OC(CO)C(O)C5OC(c6ccccc6)OC45)C(O)C3O)cc2)NC1=O (single isomer, unassigned) [Example 104a, Cyclo[glycyl-β-methylphenylalanyl-O-[4-O-(2,3-O-benzylidenehexopyranosyl)hexopyranosyl]-tyrosyl-3-(2-iminoimidazolidin-4-yl)seryl-3-(3-hexopyranosyl-2-iminoimidazolidin-4-yl)-serylseryl]]
MIC Streptococcus agalactiae (GC 4564) [1]: 0.5 µg/mL (≈ 0.361 µM)
MIC Streptococcus pneumoniae (GC 4565) [1]: 0.12 µg/mL (≈ 0.0867 µM)
MIC Streptococcus pneumonine (ATCC 6301) [1]: 0.12 to 16 µg/mL
MIC Streptococcus pyogenes (GC 4563) [1]: 0.12 µg/mL (≈ 0.0867 µM)
MIC Staphylococcus aureus (GC 3051) [2]: 0.5 µg/mL (≈ 0.361 µM)
MIC Staphylococcus aureus (GC 3053) [2]: 0.5 µg/mL (≈ 0.361 µM)
MIC Staphylococcus aureus (GC 4542) [2]: 0.5 µg/mL (≈ 0.361 µM)
MIC Staphylococcus aureus (GC 4544) [2]: 0.5 µg/mL (≈ 0.361 µM)
MIC Staphylococcus aureus (GC 4545) [2]: 0.5 µg/mL (≈ 0.361 µM)
MIC Staphylococcus haemolyticus (GC 4546) [2]: 32 µg/mL (≈ 23.1 µM)
MIC Staphylococcus haemolyticus (GC 4546) [2, 5]: 32 µg/mL (≈ 23.1 µM)
MIC Coagulase Negative Staphylococcus (GC 4547) [2]: 32 µg/mL (≈ 23.1 µM)
MIC Coagulase Negative Staphylococcus (GC 4547) [2, 5]: 32 µg/mL (≈ 23.1 µM)
MIC Coagulase Negative Staphylococcus (GC 4551) [2]: 32 µg/mL (≈ 23.1 µM)
MIC Coagulase Negative Staphylococcus (GC 4551) [2, 5]: 32 µg/mL (≈ 23.1 µM)
MIC Coagulase Negative Staphylococcus (GC 6257) [2]: 16 µg/mL (≈ 11.6 µM)
MIC Coagulase Negative Staphylococcus (GC 6257) [2, 5]: 16 µg/mL (≈ 11.6 µM)
MIC Escherichia coli (ATCC 25922) [3]: >64 µg/mL
MIC Escherichia coli (GC 4559) [3]: >64 µg/mL
MIC Enterococccus avium (GC 4558) [4]: >64 µg/mL
MIC Enterococccus faecalis (ATCC 29212) [4]: >64 µg/mL
MIC Enterococccus faecalis (GC 2691) [4]: >0.5 µg/mL
MIC Enterococccus faecalis (GC 3059) [4]: >0.5 µg/mL
MIC Enterococccus faecalis (GC 4552) [4]: >0.5 µg/mL
MIC Enterococccus faecalis (GC 4553) [4]: >0.5 µg/mL
MIC Enterococccus faecalis (GC 4554) [4]: >0.5 µg/mL
MIC Enterococccus faecalis (GC 6189) [4]: >64 µg/mL
MIC Enterococccus faecium (GC 2243) [4]: >64 µg/mL
MIC Enterococccus faecium (GC 4556) [4]: >64 µg/mL
MIC Enterococccus faecium (GC 4557) [4]: 0.5 µg/mL (≈ 0.361 µM)
MIC Enterococcus faecalis (GC 2242) [4]: >64 µg/mL

CC(c1ccccc1)C1NC(=O)CNC(=O)C(CO)NC(=O)C(C(O)C2CNC(=N)N2C2OC(CO)C(O)C(O)C2O)NC(=O)C(C(O)C2CNC(=N)N2)NC(=O)C(Cc2ccc(OC3OC(CO)C(OC4OC(CO)C(O)C5OC(c6ccccc6)OC45)C(O)C3O)cc2)NC1=O (single isomer, unassigned) [Example 104b, Cyclo[glycyl-β-methylphenylalanyl-O-[4-O-(2,3-O-benzylidenehexopyranosyl)hexopyranosyl]-tyrosyl-3(2-iminoimidazolidin-4-yl)seryl-3-(3-hexopyranosyl-2-iminoimidazolidin-4-yl)-serylseryl]]
MIC Streptococcus agalactiae (GC 4564) [1]: 0.5 µg/mL (≈ 0.361 µM)
MIC Streptococcus pneumoniae (GC 1894) [1]: 0.12 µg/mL (≈ 0.0867 µM)
MIC Streptococcus pneumoniae (GC 4565) [1]: 0.12 µg/mL (≈ 0.0867 µM)
MIC Streptococcus pneumonine (ATCC 6301) [1]: 0.12 µg/mL (≈ 0.0867 µM)
MIC Streptococcus pyogenes (GC 4563) [1]: 0.12 µg/mL (≈ 0.0867 µM)
MIC Staphylococcus aureus (ATCC 29213) ([2]; strain ATCC 29213): 0.5 µg/mL (≈ 0.361 µM)
MIC Staphylococcus aureus (GC 1131) ([2]; strain GC 1131): 0.5 µg/mL (≈ 0.361 µM)
MIC Staphylococcus aureus (GC 3051) [2]: 0.5 µg/mL (≈ 0.361 µM)
MIC Staphylococcus aureus (GC 3053) [2]: 0.5 µg/mL (≈ 0.361 µM)
MIC Staphylococcus aureus (GC 4541) ([2]; strain GC 4541): 0.5 µg/mL (≈ 0.361 µM)
MIC Staphylococcus aureus (GC 4542) [2]: 0.5 µg/mL (≈ 0.361 µM)
MIC Staphylococcus aureus-SMITH (GC 4543) ([2]; 18 hours at 35° C.): 0.5 µg/mL (≈ 0.361 µM)
MIC Staphylococcus aureus-SMITH (GC 4543) [2, 5]: 0.5 µg/mL (≈ 0.361 µM)
MIC Staphylococcus aureus (GC 4544) [2]: 0.5 µg/mL (≈ 0.361 µM)
MIC Staphylococcus aureus (GC 4545) [2]: 0.5 µg/mL (≈ 0.361 µM)
MIC Staphylococcus haemolyticus (GC 4546) [2]: 0.5 µg/mL (≈ 0.361 µM)
MIC Staphylococcus haemolyticus (GC 4546) [2, 5]: 0.5 µg/mL (≈ 0.361 µM)
MIC Coagulase Negative Staphylococcus (GC 4547) [2]: 4 µg/mL (≈ 2.89 µM)
MIC Coagulase Negative Staphylococcus (GC 4547) [2, 5]: 4 µg/mL (≈ 2.89 µM)
MIC Coagulase Negative Staphylococcus (GC 4548) [2]: 4 µg/mL (≈ 2.89 µM)
MIC Coagulase Negative Staphylococcus (GC 4548) [2, 5]: 4 µg/mL (≈ 2.89 µM)
MIC Coagulase Negative Staphylococcus (GC 4549) [2]: 4 µg/mL (≈ 2.89 µM)
MIC Coagulase Negative Staphylococcus (GC 4549) [2, 5]: 4 µg/mL (≈ 2.89 µM)
MIC Coagulase Negative Staphylococcus (GC 4551) [2]: 8 µg/mL (≈ 5.78 µM)
MIC Coagulase Negative Staphylococcus (GC 4551) [2, 5]: 8 µg/mL (≈ 5.78 µM)
MIC Coagulase Negative Staphylococcus (GC 6257) [2]: 2 µg/mL (≈ 1.45 µM)
MIC Coagulase Negative Staphylococcus (GC 6257) [2, 5]: 2 µg/mL (≈ 1.45 µM)
MIC Escherichia coli (ATCC 25922) [3]: >0.5 µg/mL
MIC Escherichia coli (GC 4559) [3]: >0.5 µg/mL
MIC Escherichia coli (GC 4560) [3]: 0.5 µg/mL (≈ 0.361 µM)
MIC Enterococccus avium (GC 4558) [4]: 0.5 µg/mL (≈ 0.361 µM)
MIC Enterococccus faecalis (ATCC 29212) [4]: 0.5 µg/mL (≈ 0.361 µM)
MIC Enterococccus faecalis (GC 2691) [4]: 0.5 µg/mL (≈ 0.361 µM)
MIC Enterococccus faecalis (GC 3059) [4]: 0.5 µg/mL (≈ 0.361 µM)
MIC Enterococccus faecalis (GC 4552) [4]: 0.5 µg/mL (≈ 0.361 µM)
MIC Enterococccus faecalis (GC 4553) [4]: 0.5 µg/mL (≈ 0.361 µM)
MIC Enterococccus faecalis (GC 4554) [4]: 0.5 µg/mL (≈ 0.361 µM)
MIC Enterococccus faecalis (GC 6189) [4]: 0.5 µg/mL (≈ 0.361 µM)
MIC Enterococccus faecium (GC 2243) [4]: 0.5 µg/mL (≈ 0.361 µM)
MIC Enterococccus faecium (GC 4556) [4]: 0.5 µg/mL (≈ 0.361 µM)
MIC Enterococccus faecium (GC 4557) [4]: 0.5 µg/mL (≈ 0.361 µM)
MIC Enterococcus faecalis (GC 2242) [4]: 0.5 µg/mL (≈ 0.361 µM)
